Reference: patent US10675333B2, “Infusion pump” (priority 2016, dated 2020)

Tested on: subject with a body weight of 51.5 kg
Experiment: GnRH stimulation test (LH and FSH levels)
Format: in vivo, human
Method: In the test, a subject with a body weight of 51.5 kg was included, and their luteinizing hormone (LH) and follicle-stimulating hormone (FSH) levels were measured as test indicators both in mIU/mL.

In the case of “GnRH: stimulating agent of the GnRH stimulation test; not further described (QHWSYGLRPG; Gonadoliberin-1; UniProt P01148 24-33, looked up)”, the FSH (0 min (reference time)) is reported as 3.49 mIU/mL, the LH (0 min (reference time)) is reported as 0.99 mIU/mL and the FSH (25 min) is reported as 4.47 mIU/mL. For the same substance, the LH (25 min) was 3.2 mIU/mL, the FSH (45 min) was 5.44 mIU/mL and the LH (45 min) was 3.76 mIU/mL. For the same substance, the FSH (90 min) was 6.21 mIU/mL, the LH (90 min) was 3.76 mIU/mL and the FSH (180 min) was 6.12 mIU/mL. It also gave an LH (180 min) of 2.46 mIU/mL, an FSH maximum level (maximum stimulated level) of 6.21 mIU/mL and an LH maximum level (maximum stimulated level) of 3.76 mIU/mL.
